Assay results: patent EP1531819B1, “USE OF I kappa B KINASE INHIBITORS FOR THE TREATMENT OF PAIN” (Sanofi-Aventis Deutschland GmbH, priority 2002, dated 2004)

Legend:
[1] = tested on: Zymosan-induzierte Pfotenentzündung bei der Maus; assay: Model 3: zymosan-induced paw inflammation, paw withdrawal latency on thermal stimulation (Hargreaves Test), AUC; format: in vivo; conditions: for AUC Mittelwert [Maß für Hyperalgesie]: thermische Hyperalgesie
Procedure: Parameter: Pfotenwegziehzeit bei thermischer Stimulation der Hinterpfote. Versuchsdurchführung: In Kurzzeitnarkose mit Isofluran wurde dem Versuchstier 25 μl einer Suspension, die 50 mg/ml Zymosan enthielt, in die rechte Hinterpfote injiziert. Dann wurde die […] quantitativ wie folgt bestimmt: Bestimmung der Pfotenwegziehzeit bei thermischer Stimulation (Hargreaves Test; s.o.). Das Versuchstier wurde in […] Versuchstier nach der Erkundungsphase (etwa 5 min) nicht mehr bewegte, wurde […] zu stimulierenden Hinterpfote positioniert und […]. Die […] ab, so dass die Hauttemperatur […] linear […] Pfote […] ab. Die Pfotentemperatur zum Zeitpunkt des Wegziehens ist für das Tier gerade eben unangenehm, […] von thermischer Schmerzschwelle. Kurz vor Zymosan-Injektion und für 7 bis 14 Tage nach Injektion wurde […] an der rechten und linken Hinterpfote bestimmt. Anschließend wurde […] Integral der Fläche, die aus […] und […] Pfote gebildet wurde, bestimmt (AUC, area between the curves, s. Tabellen 5 und 6). Je größer dieser Wert ist, umso […], und je kleiner der Wert bei Tieren, die die Substanz erhalten, desto stärker ist der Therapieerfolg. In einer 7-Tage Studie induzierte die Zymosan Injektion in […], Tab. 5). In den anderen Gruppen wurde die Substanzgabe einen Tag nach Zymosan Injektion, […] schon […]. […] Die […] Studie (7 Tage) ergab, dass die AUC unter Substanzgabe dosisabhängig abnahm. […] In einer parallel […] von Tieren wurde Paracetamol in einer sehr hohen Dosis ebenfalls zweimal am Tag verabreicht. […] Paracetamol (Tab. 5). […] […] Zymosan Injektion und Dosierschema […] zuvor beschriebenen Studie. Einziger Unterschied war, dass die weitere Studie über 14 Tage lief.

[2] = tested on: Kaolin/Carrageenan induzierte Kniegelenksentzündung bei der Ratte; assay: Model 2: kaolin/carrageenan-induced knee joint inflammation, responses of spinal neurons to pressure on the knee; format: in vivo
Text: Modell: Zymosan-induzierte Pfotenentzündung bei der Ratte; Parameter: Pfotenwegziehzeit oder Pfotenwegziehschwelle bei thermischer oder mechanischer Stimulation der Hinterpfote. • 2. Modell: Kaolin/Carrageenan induzierte Kniegelenksentzündung bei der Ratte; Parameter: Reaktion spinaler Neurone bei Druckreizung des Knies.
Versuchsdurchführung: Bei Ratten wurde in Trapanal-Narkose der Wirbelkanal eröffnet und Rückenmarksneurone, die "Schmerzimpulse" aus dem Kniegelenk verarbeiteten, identifiziert. Nach Identifizierung wurde eine Langzeitableitung durchgeführt, in der die Aktivität der Nervenzelle vor und während der Entwicklung einer akuten Entzündung im Kniegelenk registriert wurde. Dazu wurden in einer Kontrollperiode vor Induktion der Entzündung und nach Induktion der Entzündung für mehrere Stunden die Antworten auf nicht noxische und noxische Reizung am Kniegelenk gemessen.
Die akute Entzündung wurde durch die intraartikuläre Injektion einer Kaolin und Carrageenan Suspension (etwa 150 µl) induziert. In Kontrollexperimenten wurde nur das Vehikel auf die Rückenmarksoberfläche aufgebracht, um die Entwicklung der Übererregbarkeit unter Kontrollbedingungen darzustellen. In der Regel fand diese Entwicklung der Übererregbarkeit innerhalb von 2 bis 4 Stunden statt, und sie äußerte sich in einer starken Zunahme der Antworten auf nicht noxische und noxische Reizung des Kniegelenks (Tab. 3). […] Dann wurden die Antworten der Zelle auf nichtnoxische und noxische Reizung wie in den Kontrollexperimenten weiter verfolgt.

[3] = tested on: Zymosan-induzierte Pfotenentzündung bei der Maus; assay: Model 4: zymosan-induced paw inflammation, spontaneous running wheel performance, AUC; format: in vivo, C57/B6 Mäuse
Text: Das Versuchstier hat in seinem Haltungskäfig Zugang zu einem Laufrad, dessen Umdrehungen elektronisch registriert werden. Die C57/B6 Mäuse benutzen in den Nachtstunden freiwillig das Laufrad und legen im Mittel nach einer einwöchigen Gewöhnungsphase 4100 Meter/Nacht zurück. Nach Zymosan Injektion ist die nächtliche Laufstrecke verkürzt. Diese Abnahme der Laufleistung gilt als Parameter für entzündungsschmerzbedingte Funktionseinschränkung. Versuchsdurchführung: Die Laufstrecke/24 Std. wurde nach einer Eingewöhnungsphase eine Woche lang zur Bestimmung der Baseline gemessen. Dann wurde in Kurzzeitnarkose mit Isofluran dem Versuchstier 25 µl einer Suspension, die […] Zymosan enthielt, in die rechte Hinterpfote injiziert. Anschließend wurde Laufstrecke/24 Std. während der nächsten sieben Tage ermittelt. In der Auswertung wurde die Fläche unter der Kurve der Laufstreckenwerte bestimmt (AUC, Tab. 7): je kleiner die AUC, desto geringer die Laufleistung in der Woche nach Zymosan Injektion. […] Die Substanzgabe wurde am Tag 1 nach Zymosan Injektion begonnen.

[4] = Versuch 1, 30-60 min nach K/C-Injektion
[5] = Versuch 1, 60-120 min nach K/C-Injektion
[6] = Versuch 1, 120-180 min nach K/C-Injektion
[7] = Versuch 2, 30-60 min nach K/C-Injektion
[8] = Versuch 2, 120-180 min nach K/C-Injektion
[9] = Versuch 2, 180-240 min nach K/C-Injektion
[10] = 7 days after Zymosan, 200 mg/kg twice daily

With `Cc1ccc(-c2cc(C(F)(F)F)nn2-c2ccc(S(N)(=O)=O)cc2)cc1` [Celecoxib, reference compound] the “AUC Mittelwert [Maß für Hyperalgesie]” value ([1]; 14 days after Zymosan, 25 mg/kg twice daily) was 51.5.

In the case of “2-(2-Methylamino-pyrimidin-4-yl)-1 H-benzoimidazol-5-carbonsäure ((S)1-carbamoyl-2- diphenylamin-ethyl)-amid [Verbindung 22]”, the “Wirkung im Modell 2” value [2] is reported as “gute Wirkung”, the “Neuronale Antworten vor und während Kniegelenksentzündung, Nicht-noxische Reizung am Kniegelenk” value [2, 4] is reported as -34,1 imp/15s and the “Neuronale Antworten vor und während Kniegelenksentzündung, Noxische Reizung am Kniegelenk” value [2, 4] is reported as -109,1 imp/15s. The “Neuronale Antworten vor und während Kniegelenksentzündung, Nicht-noxische Reizung am Kniegelenk” value [2, 5] was -37,2 imp/15s, the “Neuronale Antworten vor und während Kniegelenksentzündung, Noxische Reizung am Kniegelenk” value [2, 5] was -101,1 imp/15s and the “Neuronale Antworten vor und während Kniegelenksentzündung, Nicht-noxische Reizung am Kniegelenk” value [2, 6] was -32,1 imp/15s. The “Neuronale Antworten vor und während Kniegelenksentzündung, Noxische Reizung am Kniegelenk” value [2, 6] was -37,8 imp/15s, the “Neuronale Antworten vor und während Kniegelenksentzündung, Nicht-noxische Reizung am Kniegelenk” value ([2]; Versuch 1, Baseline) was 0 imp/15s and the “Neuronale Antworten vor und während Kniegelenksentzündung, Noxische Reizung am Kniegelenk” value ([2]; Versuch 1, Baseline) was 0 imp/15s. The “Neuronale Antworten vor und während Kniegelenksentzündung, Nicht-noxische Reizung am Kniegelenk” value [2, 7] was -30,6 imp/15s, the “Neuronale Antworten vor und während Kniegelenksentzündung, Noxische Reizung am Kniegelenk” value [2, 7] was -9,2 imp/15s and the “Neuronale Antworten vor und während Kniegelenksentzündung, Nicht-noxische Reizung am Kniegelenk” value [2, 8] was 50,3 imp/15s. For the same molecule, the “Neuronale Antworten vor und während Kniegelenksentzündung, Noxische Reizung am Kniegelenk” value [2, 8] was 60 imp/15s, the “Neuronale Antworten vor und während Kniegelenksentzündung, Nicht-noxische Reizung am Kniegelenk” value [2, 9] was 68,7 imp/15s and the “Neuronale Antworten vor und während Kniegelenksentzündung, Noxische Reizung am Kniegelenk” value [2, 9] was 96,7 imp/15s. The “Neuronale Antworten vor und während Kniegelenksentzündung, Nicht-noxische Reizung am Kniegelenk” value ([2]; Versuch 2, Baseline) was 0 imp/15s and the “Neuronale Antworten vor und während Kniegelenksentzündung, Noxische Reizung am Kniegelenk” value ([2]; Versuch 2, Baseline) was 0 imp/15s.

With `CC(=O)Nc1ccc(O)cc1` [Paracetamol, reference compound] the “Statistischer Unterschied gegenüber Vehikel” value ([1]; thermische Hyperalgesie AUC, 7 days, 200 mg/kg twice daily) was “ja”, the “AUC Mittelwert [Maß für Hyperalgesie]” value [1, 10] was 24.6 and the “AUC Mittelwert (Laufradaktivität)” value [3, 10] was 187.2. For the same molecule, the “Laufleistung nach Zymosan Injektion gegenüber der Vehikelgruppe” value ([3]; 7 days, twice daily) was “keine Verbesserung gegenüber der Vehikelgruppe” and the “Statistischer Unterschied gegenüber Vehikel” value ([3]; Laufradaktivität AUC, 7 days, 200 mg/kg twice daily) was “nein”.
